Assay results reported in publication PMC11413854, “Reversible Control of Native GluN2B-Containing NMDA Receptors with Visible Light” (ACS Chemical Neuroscience, 2024).
pIC50, pKi: −log10 of the molar value. Entries after “also recorded” stand apart in the source; their conditions may differ. Where two headings read alike, the source gives them in different places.

Key:
GluN1/GluN2B NMDARs = conditions: cited from earlier work; for Ki or IC50: Sup. Fig. 2G, Ki or IC50 not specified
[1] = target: T1, GluN1/GluN2B NMDA receptors (UniProt P35439+Q01097); test: TEVC electrophysiology on Xenopus oocytes expressing wt GluN1/GluN2B NMDARs; type: cell-based, rat GluN1, mouse GluN2B; conditions: theoretical dose-response curve of a pure cis population calculated from 365 and 350 nm PSS
T1 construct: expressed in transfected cells; host or cells: Xenopus laevis oocytes (nuclear cDNA injection)
T1 sequence (Q01097 27-1482, other chains not shown): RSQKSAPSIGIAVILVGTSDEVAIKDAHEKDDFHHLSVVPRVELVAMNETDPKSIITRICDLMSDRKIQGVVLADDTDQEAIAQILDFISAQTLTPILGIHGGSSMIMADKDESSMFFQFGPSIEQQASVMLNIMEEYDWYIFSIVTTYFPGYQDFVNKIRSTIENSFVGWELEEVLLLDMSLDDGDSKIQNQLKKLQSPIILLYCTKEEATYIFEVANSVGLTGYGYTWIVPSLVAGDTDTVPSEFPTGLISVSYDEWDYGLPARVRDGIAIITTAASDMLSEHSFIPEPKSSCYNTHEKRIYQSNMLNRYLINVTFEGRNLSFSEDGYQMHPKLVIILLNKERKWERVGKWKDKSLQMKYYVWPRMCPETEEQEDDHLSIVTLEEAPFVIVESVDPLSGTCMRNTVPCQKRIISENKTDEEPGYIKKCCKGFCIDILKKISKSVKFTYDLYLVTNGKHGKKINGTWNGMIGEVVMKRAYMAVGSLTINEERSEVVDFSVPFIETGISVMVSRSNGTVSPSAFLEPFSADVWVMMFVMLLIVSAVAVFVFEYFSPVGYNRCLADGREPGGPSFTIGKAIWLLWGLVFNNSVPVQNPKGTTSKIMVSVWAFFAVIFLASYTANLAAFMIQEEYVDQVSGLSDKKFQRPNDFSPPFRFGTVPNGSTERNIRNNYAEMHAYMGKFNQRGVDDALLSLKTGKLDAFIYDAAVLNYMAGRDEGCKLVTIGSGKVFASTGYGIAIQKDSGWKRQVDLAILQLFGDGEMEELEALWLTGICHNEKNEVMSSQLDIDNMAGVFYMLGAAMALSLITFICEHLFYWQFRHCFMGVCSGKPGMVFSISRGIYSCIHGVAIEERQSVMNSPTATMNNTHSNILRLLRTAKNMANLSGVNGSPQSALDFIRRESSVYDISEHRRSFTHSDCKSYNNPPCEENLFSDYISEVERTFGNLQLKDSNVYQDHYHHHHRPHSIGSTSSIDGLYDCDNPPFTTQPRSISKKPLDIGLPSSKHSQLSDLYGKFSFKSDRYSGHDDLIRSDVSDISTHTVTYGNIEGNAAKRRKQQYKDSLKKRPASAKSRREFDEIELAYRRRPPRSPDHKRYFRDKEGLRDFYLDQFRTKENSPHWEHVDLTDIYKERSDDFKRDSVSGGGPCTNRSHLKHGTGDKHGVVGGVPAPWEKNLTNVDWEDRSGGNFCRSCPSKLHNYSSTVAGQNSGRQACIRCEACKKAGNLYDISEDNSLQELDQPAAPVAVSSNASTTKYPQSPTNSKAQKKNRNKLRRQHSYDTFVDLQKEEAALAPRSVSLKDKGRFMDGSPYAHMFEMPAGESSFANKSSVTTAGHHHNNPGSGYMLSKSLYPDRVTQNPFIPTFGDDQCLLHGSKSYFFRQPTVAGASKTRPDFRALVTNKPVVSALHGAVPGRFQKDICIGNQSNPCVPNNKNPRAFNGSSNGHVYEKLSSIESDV
Description: The activity of OptoNAM-3 was functionally monitored by electrophysiology on Xenopus oocytes (see Methods). To assess the light-dependent effect, we tested the activities of the dark PSS (mostly trans) and the UV PSS (mostly cis, see above) separately. For each concentration, we prepared a solution divided into two samples: one in which the compound was kept in the dark for the duration of the experiment (dark PSS state); and the other that was preilluminated with either 350 or 365 nm light (350 or 365 nm PSS) and then kept away from the light for the duration of the experiment in order to avoid photoisomerization of the compounds by ambient light (see Methods). […] We generated dose–response curves of OptoNAM-3 dark and UV PSS on wild-type (wt) GluN1/GluN2B NMDA receptors (Figure 3A) in the presence of saturating concentrations of agonists (100 μM glutamate and glycine).
We used cDNA coding for rat GluN1–1a (named GluN1 herein) (GenBank: U08261.1), rat GluN2A (GenBank: D13211.1), mouse GluN2B (GenBank: D10651.2), rat GluA1 flop (GenBank: M36418.2), and rat Myc-GluA2(Q)-flip (GenBank: AF164344.1) cloned into pcDNA3-based expression plasmids. GluK2 (GenBank: Z11548.1) corresponds to the fully RNA-edited version.[80] The GluN2B-ΔNTD construct is from ref[45] and GluN2B–N615K is from ref[81]. Single mutants GluN2B-Q110G and GluN1-L135H were from ref[19]. The GluA2 cDNA contains a Myc tag ([…]) fused between the signal peptide and the N-terminus sequences, and the GluA2 subunit is […] for its Q/R/N site (GluA2(Q)) to allow permeation of homomeric GluA2 receptors.[2] cDNAs coding for rat GluN2C (GenBank: M91563.1) and GluN2D subunits (GenBank: L31611.1) were in prK5 plasmids.
Oocytes from Xenopus laevis were used for heterologous expression of recombinant NMDA receptors studied using a two-electrode voltage clamp (TEVC). Female Xenopus laevis were housed and ovary bags harvested according to the European Union guidelines (husbandry authorizations #C75–05–31 and #D75–05–31; project authorizations #05137.02; and Apafis #28867–2020121814485893). Fragments of ovary bags were also purchased from the “Centre de Ressources Biologiques Xenopes” (now TEFOR, Paris Saclay, France) and from the European Xenopus Resource Center (EXRC, Portsmouth, UK). Xenopus laevis oocytes were harvested and prepared as previously described in ref[82].
Expression of recombinant NMDA receptors was obtained by oocyte nuclear coinjection of 37 nL of a mixture of cDNAs (at 30 ng/μL) coding for GluN1–1a and various GluN2 subunits (ratio 1:1). The protocol in ref[43] was followed for the expression of GluN1/GluN2A/GluN2B triheteromers. The oocytes were transferred in 96-well plates filled with Barth solution (in mM: 88 NaCl, 1 KCl, 0.33 Ca(NO3)2, 0.41 CaCl2, 0.82 MgSO4, 2.4 NaHCO3, and 7.5 HEPES, pH adjusted to 7.3 with NaOH), supplemented with gentamicin ([…]) and 50 μM APV, a selective NMDA receptor antagonist. Plates were then stored at 18 °C for 24 h for GluN1/GluN2A expression and for 48––72 h for the expression of GluN1/Glu2B, GluN1/GluN2A/GluN2B, and mutants.
TEVC recordings were performed 1–3 days following injection. TEVC recordings were performed using an Oocyte Clamp amplifier OC-725 (Warner Instruments) and computer-controlled via a 1440A Digidata (Molecular Devices). Currents were sampled at 100 Hz and low-pass-filtered at 20 Hz using an 8-pole Bessel filter (900 Series, Frequency Devices Inc.).

[2] = tested on: cultured cortical neurons at DIV 14; test: NMDA excitotoxicity test, neuronal survival by MTT; type: cell-based, mouse; conditions: for neuronal survival: 5 µM inhibitor + 100 µM NMDA + 10 µM glycine; for % of survival, Mean: compound 5µM with NMDA 100µM, MTT A(540 nm) normalized to control (100) and NMDA alone (0)
Description: We first investigated whether OptoNAM-3 could be used in the context of a patho-physiological process related to GluN1/GluN2B receptors. Overactivation of NMDARs induced by tonic exposure to glutamate or NMDA is well-known to trigger neuronal death.[6] GluN1/GluN2B receptors are thought to be the major player of this neurotoxicity, and GluN1/GluN2B antagonists have proven to be potent neuroprotectants in vitro and in vivo.[5],[15] To test the neuroprotective activity of OptoNAM-3 and its photodependence of action, we performed a protocol of excitotoxicity based on exposure to NMDA (100 μM) of cultured cortical neurons at DIV 14,[15] in the presence of OptoNAM-3. […] OptoNAM-3 in the dark, at a concentration of 5 μM, induced, like ifenprodil, an ∼50% increase in cell survival (Figure S4). […] OptoNAM-3 is therefore able to promote cell survival in neuron cultures in a photodependent manner.
Mice were housed in the IBENS rodent central facility duly accredited by the French Ministry of Agriculture. All experiments were performed in compliance with French and European regulations on care and protection of laboratory animals (EU Directive 2010/63, French Law 2013–118, February 6, 2013), and were approved by local ethics committees and by the French Ministry of Research and Innovation (authorization numbers #05137.02, APAFIS #28867-2020121814485893). Dissociated cultures of cortical neurons were prepared from mouse embryos at E18 as described previously.[84] After removing meninges, cortices were placed in ice-cold HBSS solution. Cell dissociation was performed individually for cortices of each embryo. Cortices were incubated in 2.5% trypsin at 37 °C for 7 min, rinsed three times with 37 °C phosphate buffer saline, and finally suspended in plating medium (Neurobasal Medium, supplemented with 0.5 mM L-glutamine, 1% B27 supplement, and penicillin/streptomycin). The neurons were further dissociated by trituration, and cells were plated on poly-D-lysine coated coverslips in 24-well culture dishes at a density of 3 × 10^5 cells per well for the excitotoxicity test and that of 1 × 10^5 cells per well for patch clamp experiments. Cultures were incubated at 37 °C in a humidified atmosphere of 5% CO2. Cells were fed by changing 1/2 medium to fresh Neurobasal medium every 4 days. For the excitotoxicity experiments, after 5 days in vitro, growth of non-neuronal cells was halted by a 24 h exposure to FDX ([…] 5-fluoro-2′-deoxyuridine). The cultures were used for experiments after 6 to 14 days in vitro (DIV6–8 for patch clamp experiments and DIV14 for excitotoxicity tests).
Excitotoxicity tests were performed 14 days after the culturing step as described in ref[15]. Just before the experiments, the neuronal medium was changed and the neurons incubated in the external patch recording solution (see above). Two replicates of 24 well plates containing cultured cortical neurons were exposed to the same 4 conditions, in which the following compounds were added to the medium: (1) glycine (10 μM) alone (control); (2) glycine (10 μM) + NMDA (100 μM); (3) glycine (10 μM) + NMDA (100 μM) + 5 μM ifenprodil; and (4) glycine (10 μM) + NMDA (100 μM) + 5 μM trans-OptoNAM-3 (dark). One of the two plates was exposed to UV light (Jena analytic US, UVP Hand-held UV lamp UVGL-58, power ∼1 mW) for 2 min. The two plates were then put back in the 37 °C incubator for 10 min. Agonist exposure was terminated by washing out the exposure solution with conditioned Neurobasal medium, prior to returning the dishes to the incubator for 24 h before assessment of neuronal death.
Overall neuronal cell death was determined 24 h after NMDA exposure by the MTT test. Mitochondrial and cytosolic dehydrogenases of living cells reduce the yellow tetrazolium salt (MTT) to produce a purple formazan dye that can be detected spectrophotometrically.[85] […]

Nc1ccnc(N2CCc3ccccc3C2)c1 [9n = Compound 1]
Ki or IC50 (GluN1/GluN2B NMDARs; ref: ref. 39): 3 nM

c1ccc(/N=N\c2ccc(CCNc3ccncc3)cc2)cc1 [cis-OptoNAM-3]
activity of the cis isomer on GluN1/GluN2B NMDARs [1]: inactive

CC(C(O)c1ccc(O)cc1)N1CCC(Cc2ccccc2)CC1 (stereo not drawn) [ifenprodil]
neuronal survival ([2]; 2 min UV (365 nm), normalized to control and NMDA): not affected; also recorded: No photodependent effect
neuronal survival ([2]; dark, normalized to control (100%) and NMDA (0%)): 60%
% of survival, Mean ([2]; Dark): 59.345%
% of survival, Mean ([2]; UV): 59.393%

Nc1ccnc(N2CCc3ccccc3C2)c1 [parent compound 1]
pKi (GluN1/GluN2B NMDARs; ref 3 (SI), read-out: Parent compound Ki): 8.52

Cc1cc(N)nc(/C=C/c2ccccc2)c1 [parent compound 2]
Ki or IC50 (GluN1/GluN2B NMDARs; ref: ref. 40): 10 nM
pIC50 (GluN1/GluN2B NMDARs; ref 2,6 (SI), read-out: Parent compound IC50): 8.00
